This note sets out measurements from patent US6562804B2, “Hair-growing agent” (Kyowa Hakko Kogyo Co., Ltd., priority 2001, dated 2003).

This experiment relates to mouse hair follicle epithelial cells. Kind of experiment: Cell growth-promoting effect on cultured mouse hair follicle epithelial cells (MTT). It is filed as cell-based. The following applies: C3H mouse hair follicle epithelial cells, 5 days culture, DMSO control = 100.

SMILES strings stand for the structures.

Protocol: Mouse hair follicle epithelial cells were separated and cultured according to a modification of the method of Tanigaki, et al. [Archives of Dermatological Research, 284, 290-296 (1992)].
The skin on the back of a 4-days-old C3H mouse (Charles River Japan, Inc.) was cut off and treated with MEM (Eagle's Minimum Essential Medium) containing 500 units/ml Dispase (Godo Shusei Co., Ltd.) and 5% fetal calf serum (FCS) at 4° C. for 16 hours.
Then, the epidermis was stripped from the skin section, and the obtained dermis layer was treated with DMEM (Dulbecco's modified Eagle Medium) containing 0.25% Collagenase N-2 (Nitta Gelatin Co., Ltd.) and 10% FCS at 37° C. for one hour to obtain a dermis suspension. The dermis suspension was filtered through a 212-μm nylon mesh (Nippon Rikagaku Kikai Co., Ltd.) and the filtrate was centrifuged at 1000 rpm for 5 minutes to obtain pellets containing hair follicle tissue. To the pellets was added calcium/magnesium-free PBS (Dulbecco's Phosphate-Buffered Saline) and the pellets were suspended therein using a pipette. The resulting suspension was allowed to stand for 15 minutes to precipitate hair follicle tissue. The same procedure as above (addition of calcium/magnesium-free PBS, suspending by use of a pipette, and precipitation by allowing the suspension to stand for 15 minutes) was repeated three times using the obtained hair follicle tissue.
Then, the hair follicle tissue was treated with a solution containing 0.1% ethylenediaminetetraacetic acid (EDTA) and 0.25% trypsin (Gibco) at 37° C. for 5 minutes. To the resulting mixture was added DMEM containing 10% FCS to prepare a hair follicle tissue cell suspension having a density of 3×10^5 cells/ml. The hair follicle tissue cell suspension was put into wells of a 24-well collagen-coated plate (Iwaki Glass Co., Ltd.) in an amount of 1 ml/well, followed by culturing in 5% CO2 at 37° C. for 24 hours.
During the culturing, the medium was replaced with a fresh one every other day.
As a control, the cells were cultured in the same medium as above except that DMSO alone was added in an amount of 1/100 by volume in place of DMSO containing a phosphatidic acid, and/or procyanidin B-2 or dl-α-tocopherol.
The degree of cell growth was measured according to the method using MTT [3-(4,5-dimethylthiazol-2-yl)-2,5-diphenyl tetrazolium bromide]
To each well of the 24-well microplate (2 cm^2/well) was added a PBS solution of MTT (5 mg/ml) in an amount of 1/10 by volume based on 1 ml of the culture. The plate was shaken to make the mixture homogeneous, followed by culturing in 5% CO2 at 37° C. for 4 hours.

For the molecule `Oc1cc(O)c2c(c1)O[C@H](c1ccc(O)c(O)c1)[C@H](O)[C@H]2c1c(O)cc(O)c2c1O[C@H](c1ccc(O)c(O)c1)[C@H](O)C2` [Procyanidin B-2, epicatechin-(4β→8)-epicatechin], the “Relative cell growth rate based on the control as 100” value (“Relative cell growth rate based” below) (active ingredient 30 μmol/l) worked out at 310.

As to `CCCCCCCCCCCCCCCCOCC(COP(=O)(O)O)OC(C)=O` (centres unmarked) [1-O-hexadecyl-2-O-acetylglyceryl-3-phosphoric acid], the “Relative cell growth rate based” value (active ingredient 1 μmol/l) is 155.

Consider `Cc1c(C)c2c(c(C)c1O)CCC(C)(CCCC(C)CCCC(C)CCCC(C)C)O2` (racemic) [dl-α-Tocopherol, dl-α-tocopherol, reference compound], for which the “Relative cell growth rate based” value (active ingredient 30 μmol/l) was determined as 184.

`CCCCCCCCCCCCCCCCOCC(COP(=O)(O)O)OC` (centres unmarked) [1-O-hexadecyl-2-O-methylglyceryl-3-phosphoric acid]: for the setting “active ingredient 1 μmol/l”, the “Relative cell growth rate based” value worked out at 177.

On to `CCCCCCCC/C=C\CCCCCCCC(=O)OCC(COP(=O)(O)O)OC` (centres unmarked) [1-O-oleoyl-2-O-methylglyceryl-3-phosphoric acid], for which the “Relative cell growth rate based” value (active ingredient 1 μmol/l) came to 163.
